From ChEMBL document CHEMBL1201862, “PubChem BioAssay data set” (2004)
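Grown in 96-well plates, cells were treated for 48 hours with each compound at five concentrations. Insufficient inhibition: endpoint recorded as highest concentration tested. At the GI50, growth is halved.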 The source made the active and inactive calls. Rule as the data show it: active = GI50 up to about 1.1 µM and inactive = higher.

Key:
Test in all cases: NCI tumour cell line growth inhibition, 48 h
786-0 = test system: 786-0
A498 = test system: A498
A549 = test system: A549
ACHN = test system: ACHN
BT-549 = test system: BT-549
CAKI-1 = test system: CAKI-1
CCRF-CEM = test system: CCRF-CEM
COLO 205 = test system: COLO 205
DU-145 = test system: DU-145
EKVX = test system: EKVX
HCC 2998 = test system: HCC 2998
HCT-116 = test system: HCT-116
HCT-15 = test system: HCT-15
HOP-62 = test system: HOP-62
HOP-92 = test system: HOP-92
HT-29 = test system: HT-29
Hs-578T = test system: Hs-578T
IGROV-1 = test system: IGROV-1
K562 = test system: K562
KM12 = test system: KM12
LOX IMVI = test system: LOX IMVI
M14 = test system: M14
MCF7 = test system: MCF7
MDA-MB-231 = test system: MDA-MB-231
MDA-MB-435 = test system: MDA-MB-435
MDA-N = test system: MDA-N
MOLT-4 = test system: MOLT-4
Malme-3M = test system: Malme-3M
NCI-H226 = test system: NCI-H226
NCI-H23 = test system: NCI-H23
NCI-H460 = test system: NCI-H460
NCI-H522 = test system: NCI-H522
NCI/ADR-RES = test system: NCI/ADR-RES
OVCAR-3 = test system: OVCAR-3
OVCAR-4 = test system: OVCAR-4
OVCAR-5 = test system: OVCAR-5
OVCAR-8 = test system: OVCAR-8
PC-3 = test system: PC-3
RPMI-8226 = test system: RPMI-8226
RXF 393 = test system: RXF 393
SF-268 = test system: SF-268
SF-295 = test system: SF-295
SF-539 = test system: SF-539
SK-MEL-28 = test system: SK-MEL-28
SK-MEL-2 = test system: SK-MEL-2
SK-MEL-5 = test system: SK-MEL-5
SK-OV-3 = test system: SK-OV-3
SN12C = test system: SN12C
SNB-19 = test system: SNB-19
SNB-75 = test system: SNB-75
SR = test system: SR
SW-620 = test system: SW-620
T47D = test system: T47D
TK-10 = test system: TK-10
U-251 = test system: U-251
UACC-257 = test system: UACC-257
UACC-62 = test system: UACC-62
UO-31 = test system: UO-31

## O=c1oc2ccccc2cc1-c1cn2ccccc2n1
786-0
  GI50: 3.8 µM (inactive)
A498
  GI50: 2.24 µM (inactive)
A549
  GI50: 5.48 µM (inactive)
ACHN
  GI50: 3.49 µM (inactive)
BT-549
  GI50: 11.9 µM (inactive)
CAKI-1
  GI50: 5.75 µM (inactive)
CCRF-CEM
  GI50: 5.18 µM (inactive)
COLO 205
  GI50: 30.1 µM (inactive)
DU-145
  GI50: 7.82 µM (inactive)
EKVX
  GI50: 11.4 µM (inactive)
HCC 2998
  GI50: 20.1 µM (inactive)
HCT-116
  GI50: 10.1 µM (inactive)
HCT-15
  GI50: 16.7 µM
HOP-62
  GI50: 3.24 µM (inactive)
HOP-92
  GI50: 16.6 µM (inactive)
HT-29
  GI50: 12.6 µM (inactive)
Hs-578T
  GI50: 4.5 µM (inactive)
IGROV-1
  GI50: 7.05 µM (inactive)
K562
  GI50: 10.2 µM (inactive)
KM12
  GI50: 10.5 µM (inactive)
LOX IMVI
  GI50: 12.6 µM (inactive)
M14
  GI50: 8.51 µM (inactive)
MCF7
  GI50: 13.8 µM (inactive)
MDA-MB-231
  GI50: 6.4 µM (inactive)
MDA-MB-435
  GI50: 4.1 µM (inactive)
MDA-N
  GI50: 4.88 µM (inactive)
MOLT-4
  GI50: 18.6 µM (inactive)
Malme-3M
  GI50: 3.22 µM (inactive)
NCI-H226
  GI50: 8.43 µM (inactive)
NCI-H23
  GI50: 12.1 µM (inactive)
NCI-H460
  GI50: 4.16 µM (inactive)
NCI-H522
  GI50: 3.31 µM (inactive)
NCI/ADR-RES
  GI50: 3.15 µM (inactive)
OVCAR-3
  GI50: 4.16 µM (inactive)
OVCAR-4
  GI50: 4.08 µM (inactive)
OVCAR-5
  GI50: 21.7 µM (inactive)
OVCAR-8
  GI50: 3.21 µM (inactive)
PC-3
  GI50: 4.26 µM (inactive)
RPMI-8226
  GI50: 10.4 µM (inactive)
RXF 393
  GI50: 3.85 µM (inactive)
SF-268
  GI50: 2.96 µM (inactive)
SF-295
  GI50: 3.66 µM (inactive)
SF-539
  GI50: 4.17 µM (inactive)
SK-MEL-28
  GI50: 4.4 µM (inactive)
SK-MEL-2
  GI50: 5 µM (inactive)
SK-MEL-5
  GI50: 6.18 µM (inactive)
SK-OV-3
  GI50: 4.01 µM (inactive)
SN12C
  GI50: 4.6 µM (inactive)
SNB-19
  GI50: 3.32 µM (inactive)
SNB-75
  GI50: 2.47 µM (inactive)
SR
  GI50: 3.85 µM (inactive)
SW-620
  GI50: 10.4 µM (inactive)
T47D
  GI50: 14.6 µM (inactive)
TK-10
  GI50: 8.02 µM (inactive)
U-251
  GI50: 2.33 µM (inactive)
UACC-257
  GI50: 3.89 µM (inactive)
UACC-62
  GI50: 4.65 µM (inactive)
UO-31
  GI50: 2.36 µM (inactive)

## CCOC(=O)c1cn2c(n1)sc1cc(Cl)ccc12
786-0
  GI50: 6.58 µM (inactive)
A498
  GI50: 33.6 µM (inactive)
A549
  GI50: 15.6 µM (inactive)
ACHN
  GI50: 14.5 µM (inactive)
BT-549
  GI50: > 100 µM (inactive)
CAKI-1
  GI50: 19.2 µM (inactive)
CCRF-CEM
  GI50: 5.45 µM (inactive)
COLO 205
  GI50: 5.47 µM (inactive)
DU-145
  GI50: 10.7 µM (inactive)
EKVX
  GI50: 18.7 µM (inactive)
HCC 2998
  GI50: > 100 µM (inactive)
HCT-116
  GI50: 3.37 µM (inactive)
HCT-15
  GI50: 5.64 µM
HOP-62
  GI50: 18.1 µM (inactive)
HOP-92
  GI50: > 100 µM (inactive)
HT-29
  GI50: 17 µM (inactive)
Hs-578T
  GI50: 24.7 µM (inactive)
IGROV-1
  GI50: 24.7 µM (inactive)
K562
  GI50: 2.86 µM (inactive)
KM12
  GI50: 4.54 µM (inactive)
LOX IMVI
  GI50: 7.78 µM (inactive)
M14
  GI50: 18.3 µM (inactive)
MCF7
  GI50: 4.2 µM (inactive)
MDA-MB-231
  GI50: > 100 µM (inactive)
MDA-MB-435
  GI50: 5.68 µM (inactive)
MDA-N
  GI50: 2.71 µM (inactive)
MOLT-4
  GI50: 2.96 µM (inactive)
Malme-3M
  GI50: 13.1 µM (inactive)
NCI-H226
  GI50: 72.6 µM (inactive)
NCI-H23
  GI50: 62.2 µM (inactive)
NCI-H460
  GI50: > 100 µM (inactive)
NCI-H522
  GI50: 31.2 µM (inactive)
NCI/ADR-RES
  GI50: 19.6 µM (inactive)
OVCAR-3
  GI50: 14.1 µM (inactive)
OVCAR-4
  GI50: > 100 µM (inactive)
OVCAR-5
  GI50: 15 µM (inactive)
OVCAR-8
  GI50: 21.9 µM (inactive)
PC-3
  GI50: 30.6 µM (inactive)
RPMI-8226
  GI50: 8.41 µM (inactive)
RXF 393
  GI50: 45 µM (inactive)
SF-268
  GI50: 30.6 µM (inactive)
SF-295
  GI50: 35.2 µM (inactive)
SF-539
  GI50: 5.78 µM (inactive)
SK-MEL-28
  GI50: 76.2 µM (inactive)
SK-MEL-2
  GI50: > 100 µM (inactive)
SK-MEL-5
  GI50: 7.76 µM (inactive)
SK-OV-3
  GI50: 52 µM (inactive)
SN12C
  GI50: 11.4 µM (inactive)
SNB-19
  GI50: 8.28 µM (inactive)
SNB-75
  GI50: 31 µM (inactive)
SR
  GI50: 1.55 µM (inactive)
SW-620
  GI50: 4.75 µM (inactive)
T47D
  GI50: 57.8 µM (inactive)
TK-10
  GI50: > 100 µM (inactive)
U-251
  GI50: 14.1 µM (inactive)
UACC-257
  GI50: 26.7 µM (inactive)
UACC-62
  GI50: 59.7 µM (inactive)
UO-31
  GI50: 7.21 µM (inactive)

## C#CC(O)Cc1ccc(OC)c2occc12 (stereo unspecified)
786-0
  GI50: > 100 µM (inactive)
A498
  GI50: > 100 µM (inactive)
A549
  GI50: > 100 µM (inactive)
ACHN
  GI50: > 100 µM (inactive)
BT-549
  GI50: > 100 µM (inactive)
CAKI-1
  GI50: > 100 µM (inactive)
COLO 205
  GI50: > 100 µM (inactive)
DU-145
  GI50: > 100 µM (inactive)
EKVX
  GI50: 69.3 µM (inactive)
HCC 2998
  GI50: > 100 µM (inactive)
HCT-116
  GI50: > 100 µM (inactive)
HCT-15
  GI50: > 100 µM
HOP-62
  GI50: > 100 µM (inactive)
HOP-92
  GI50: > 100 µM (inactive)
HT-29
  GI50: > 100 µM (inactive)
Hs-578T
  GI50: > 100 µM (inactive)
IGROV-1
  GI50: > 100 µM (inactive)
K562
  GI50: > 100 µM (inactive)
KM12
  GI50: > 100 µM (inactive)
LOX IMVI
  GI50: > 100 µM (inactive)
M14
  GI50: > 100 µM (inactive)
MCF7
  GI50: > 100 µM (inactive)
MDA-MB-231
  GI50: > 100 µM (inactive)
MDA-MB-435
  GI50: > 100 µM (inactive)
MDA-N
  GI50: > 100 µM (inactive)
Malme-3M
  GI50: > 100 µM (inactive)
NCI-H226
  GI50: > 100 µM (inactive)
NCI-H23
  GI50: > 100 µM (inactive)
NCI-H460
  GI50: > 100 µM (inactive)
NCI-H522
  GI50: > 100 µM (inactive)
NCI/ADR-RES
  GI50: > 100 µM (inactive)
OVCAR-3
  GI50: > 100 µM (inactive)
OVCAR-4
  GI50: > 100 µM (inactive)
OVCAR-5
  GI50: > 100 µM (inactive)
OVCAR-8
  GI50: > 100 µM (inactive)
PC-3
  GI50: > 100 µM (inactive)
RPMI-8226
  GI50: > 100 µM (inactive)
RXF 393
  GI50: > 100 µM (inactive)
SF-268
  GI50: > 100 µM (inactive)
SF-295
  GI50: > 100 µM (inactive)
SF-539
  GI50: > 100 µM (inactive)
SK-MEL-2
  GI50: > 100 µM (inactive)
SK-MEL-5
  GI50: > 100 µM (inactive)
SK-OV-3
  GI50: > 100 µM (inactive)
SN12C
  GI50: > 100 µM (inactive)
SNB-19
  GI50: > 100 µM (inactive)
SNB-75
  GI50: 52.1 µM (inactive)
SR
  GI50: > 100 µM (inactive)
SW-620
  GI50: > 100 µM (inactive)
T47D
  GI50: > 100 µM (inactive)
TK-10
  GI50: > 100 µM (inactive)
U-251
  GI50: > 100 µM (inactive)
UACC-257
  GI50: > 100 µM (inactive)
UACC-62
  GI50: > 100 µM (inactive)
UO-31
  GI50: > 100 µM (inactive)
